Reference: ChEMBL document CHEMBL5046231, “Modulation of Naturally Occurring Linear Dipeptide Chirality to Reduce the Affinity for Oligopeptide Transporter 1 and Increase Intestinal Stability for an Enhanced Colon-Targeting Effect in the Treatment of Inflammatory Bowel Disease: An Application of trans-4-l-Hydroxyprolyl-l-serine” (J Med Chem, 2022)
Calls of active or inactive are those of the source. No cut-off for these calls is given here.

Tests used:
Mus musculus [1] = assay: Anti-colitis activity against DSS-induced colitis in C57BL/6 mouse model assessed as decrease in MPO level in colon at 50 mg/kg, po administered via gavage twice a day for 10 days; format: functional; set-up: scale not given: the % may be the effect or the level left; conditions: time 10 day
Mus musculus [2] = assay: Anti-colitis activity against DSS-induced colitis in C57BL/6 mouse model assessed as increase in colon length at 25 mg/kg, po administered via gavage twice daily for 10 days; format: functional, organism-based; conditions: time 10.0 day
Mus musculus [3] = assay: Anti-colitis activity against DSS-induced C57BL/6 mouse model of colitis assessed as fold change in disease activity index at 25 to 100 mg/kg, po administered via gavage twice a day for 10 days relative to SASP; format: functional; conditions: dose 25-100 mg/kg; time 10 day
Mus musculus [4] = assay: Anti-colitis activity against DSS-induced colitis in C57BL/6 mouse model assessed as assessed as recovery of body weight at 25 mg/kg, po administered via gavage twice daily for 10 days; format: functional, organism-based; conditions: time 10.0 day
Mus musculus [5] = assay: Anti-colitis activity against DSS-induced colitis in C57BL/6 mouse model assessed as increase in colon length at 50 mg/kg, po administered via gavage twice a day for 10 days; format: functional, organism-based; conditions: time 10.0 day
Mus musculus [6] = assay: Antiinflammatory activity in DSS-induced C57BL/6 mouse model of colitis assessed as decrease in IL-1beta level 25 to 100 mg/kg, po administered via gavage twice a day for 10 days; format: functional, organism-based; conditions: dose 25-100 mg/kg, time 10.0 day
Mus musculus [7] = assay: Antiinflammatory activity in DSS-induced C57BL/6 mouse model of colitis assessed as decrease in […] level 25 to 100 mg/kg, po administered via gavage twice a day for 10 days; format: functional, organism-based; conditions: dose 25-100 mg/kg, time 10.0 day
Mus musculus [8] = assay: Anti-colitis activity against DSS-induced C57BL/6 mouse model of colitis assessed as fold change in body weight recovery at 25 to 100 mg/kg, po administered via gavage twice a day for 10 days relative to SASP; format: functional; conditions: dose 25-100 mg/kg; time 10 day
Mus musculus [9] = assay: Anti-colitis activity against DSS-induced C57BL/6 mouse model of colitis assessed as assessed as body weight recovery at 50 mg/kg, po administered via gavage DSS stimulation for 5 days followed by compound addition once daily for 10 days; format: functional, organism-based; conditions: time 10.0 day
Mus musculus [10] = assay: Anti-colitis activity against DSS-induced C57BL/6 mouse model of colitis assessed as fold change in colon length at 25 to 100 mg/kg, po administered via gavage twice a day for 10 days relative to SASP; format: functional; conditions: dose 25-100 mg/kg; time 10 day
Mus musculus [11] = assay: Antiinflammatory activity in DSS-induced C57BL/6 mouse model of colitis assessed as decrease in TNF-alpha level 25 to 100 mg/kg, po administered via gavage twice a day for 10 days; format: functional, organism-based; conditions: dose 25-100 mg/kg, time 10.0 day
Mus musculus [12] = assay: Anti-colitis activity against DSS-induced colitis in C57BL/6 mouse model assessed as body weight recovery at 50 mg/kg, po administered via gavage twice a day for 10 days; format: functional, organism-based; conditions: time 10.0 day
Mus musculus [13] = assay: Antiinflammatory activity in DSS-induced C57BL/6 mouse model of colitis assessed as increase in IL-10 level 25 to 100 mg/kg, po administered via gavage twice a day for 10 days; format: functional, organism-based; conditions: dose 25-100 mg/kg, time 10.0 day
Mus musculus [14] = assay: Anti-colitis activity against DSS-induced C57BL/6 mouse model of colitis assessed as increase in colon length at 50 mg/kg, po administered via gavage DSS stimulation for 5 days followed by compound addition once daily for 10 days; format: functional, organism-based; conditions: time 10.0 day
Mus musculus [15] = assay: Anti-colitis activity against DSS-induced colitis in C57BL/6 mouse model assessed as reduction colonic damage at 50 mg/kg, po administered via gavage twice a day for 10 days; format: functional, organism-based; conditions: time 10.0 day
Mus musculus [16] = assay: Anti-colitis activity against DSS-induced colitis in C57BL/6 mouse model assessed as fold decrease in disease activity index at 50 mg/kg, po administered via gavage twice daily for 10 days relative to control; format: functional; conditions: time 10 day

O=C(O)c1cc(/N=N/c2ccc(S(=O)(=O)Nc3ccccn3)cc2)ccc1O [SULFASALAZINE]
Activity (Mus musculus [1]): 27.3%
Activity (Mus musculus [2]): Active
fold change (FC) (Mus musculus [3]): 2.3
Activity (Mus musculus [4]): Active
Activity (Mus musculus [5]): Active
Activity (Mus musculus [6]): Active
Activity (Mus musculus [7]): Active
fold change (FC) (Mus musculus [8]): 2.1
Activity (Mus musculus [9]): Active
fold change (FC) (Mus musculus [10]): 1.2
Activity (Mus musculus [11]): Active
Activity (Mus musculus [12]): Active
Activity (Mus musculus [13]): Active
Activity (Mus musculus [14]): Active
Activity (Mus musculus [15]): Active
fold change (FC) (Mus musculus [16]): 1.5
